From PubChem BioAssay (NCI)
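Protocol summary: plate cells (96-well), add compound at 5 concentrations, incubate 48 h, interpolate endpoints linearly. At the GI50, growth is halved. Definition used: TGI = concentration required for complete inhibition of growth.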

Legend:
Assay in all cases: NCI-60 cell line screen, 48 h
MCF7 breast = system: MCF7 breast
RXF 393 renal = system: RXF 393 renal
IGROV1 ovarian = system: IGROV1 ovarian
SF-295 CNS = system: SF-295 CNS
OVCAR-8 ovarian = system: OVCAR-8 ovarian
M14 melanoma = system: M14 melanoma
NCI-H522 lung = system: NCI-H522 lung
SNB-19 CNS = system: SNB-19 CNS
BT-549 breast = system: BT-549 breast
SF-268 CNS = system: SF-268 CNS
HOP-62 NSCLC = system: HOP-62 NSCLC
SK-OV-3 ovarian = system: SK-OV-3 ovarian
HOP-92 NSCLC = system: HOP-92 NSCLC
LOX IMVI melanoma = system: LOX IMVI melanoma
MDA-MB-231 breast = system: MDA-MB-231 breast
DU-145 prostate = system: DU-145 prostate
NCI/ADR-RES ovarian = system: NCI/ADR-RES ovarian
TK-10 renal = system: TK-10 renal
SK-MEL-2 melanoma = system: SK-MEL-2 melanoma
MOLT-4 leukemia = system: MOLT-4 leukemia
HS 578T breast = system: HS 578T breast
EKVX NSCLC = system: EKVX NSCLC
MALME-3M melanoma = system: MALME-3M melanoma
HL-60(TB) leukemia = system: HL-60(TB) leukemia
U251 CNS = system: U251 CNS
CCRF-CEM leukemia = system: CCRF-CEM leukemia
NCI-H226 lung = system: NCI-H226 lung
SNB-75 CNS = system: SNB-75 CNS
SR leukemia = system: SR leukemia
OVCAR-3 ovarian = system: OVCAR-3 ovarian
HCT-116 colon = system: HCT-116 colon
OVCAR-4 ovarian = system: OVCAR-4 ovarian
SF-539 CNS = system: SF-539 CNS
T-47D breast = system: T-47D breast
SW-620 colon = system: SW-620 colon
SK-MEL-28 melanoma = system: SK-MEL-28 melanoma
NCI-H460 lung = system: NCI-H460 lung
A549 NSCLC = system: A549 NSCLC
COLO 205 colon = system: COLO 205 colon
CAKI-1 renal = system: CAKI-1 renal
KM12 colon = system: KM12 colon
A498 renal = system: A498 renal
UO-31 renal = system: UO-31 renal
RPMI-8226 leukemia = system: RPMI-8226 leukemia
OVCAR-5 ovarian = system: OVCAR-5 ovarian
K-562 leukemia = system: K-562 leukemia
786-0 renal = system: 786-0 renal
NCI-H23 lung = system: NCI-H23 lung
HCC-2998 colon = system: HCC-2998 colon
SN12C renal = system: SN12C renal
UACC-62 melanoma = system: UACC-62 melanoma
MDA-MB-435 = system: MDA-MB-435
ACHN renal = system: ACHN renal
SK-MEL-5 melanoma = system: SK-MEL-5 melanoma
HT29 colon = system: HT29 colon
UACC-257 melanoma = system: UACC-257 melanoma
HCT-15 colon = system: HCT-15 colon

SMILES: COc1cc(NC(=O)CSc2nc3ccccc3c(=O)n2CCc2ccccc2)cc(OC)c1OC
- GI50 (MCF7 breast): 4.44 µM
- TGI (MCF7 breast): > 100 µM
- GI50 (RXF 393 renal): 1.57 µM
- TGI (RXF 393 renal): 3.69 µM
- GI50 (IGROV1 ovarian): 1.93 µM
- TGI (IGROV1 ovarian): 4.46 µM
- GI50 (SF-295 CNS): 3.21 µM
- TGI (SF-295 CNS): 15.3 µM
- GI50 (OVCAR-8 ovarian): 2.7 µM
- TGI (OVCAR-8 ovarian): > 100 µM
- GI50 (M14 melanoma): 5.49 µM
- TGI (M14 melanoma): > 100 µM
- GI50 (NCI-H522 lung): 1.65 µM
- TGI (NCI-H522 lung): 4.2 µM
- GI50 (SNB-19 CNS): 3.49 µM
- TGI (SNB-19 CNS): 17.5 µM
- GI50 (BT-549 breast): 3.22 µM
- TGI (BT-549 breast): 9.47 µM
- GI50 (SF-268 CNS): 3.55 µM
- TGI (SF-268 CNS): 43.9 µM
- GI50 (HOP-62 NSCLC): 2.12 µM
- TGI (HOP-62 NSCLC): 4.88 µM
- GI50 (SK-OV-3 ovarian): 1.93 µM
- TGI (SK-OV-3 ovarian): 3.69 µM
- GI50 (HOP-92 NSCLC): 0.587 µM
- TGI (HOP-92 NSCLC): 3.44 µM
- GI50 (LOX IMVI melanoma): 4.11 µM
- TGI (LOX IMVI melanoma): > 100 µM
- GI50 (MDA-MB-231 breast): 1.47 µM
- TGI (MDA-MB-231 breast): 3.71 µM
- GI50 (DU-145 prostate): 4.98 µM
- TGI (DU-145 prostate): > 100 µM
- GI50 (NCI/ADR-RES ovarian): 3.77 µM
- TGI (NCI/ADR-RES ovarian): > 100 µM
- GI50 (TK-10 renal): 1.81 µM
- TGI (TK-10 renal): 3.81 µM
- GI50 (SK-MEL-2 melanoma): 2.32 µM
- TGI (SK-MEL-2 melanoma): 6.94 µM
- GI50 (MOLT-4 leukemia): > 100 µM
- TGI (MOLT-4 leukemia): > 100 µM
- GI50 (HS 578T breast): 3.52 µM
- TGI (HS 578T breast): > 100 µM
- GI50 (EKVX NSCLC): 4.8 µM
- TGI (EKVX NSCLC): > 100 µM
- GI50 (MALME-3M melanoma): 2.16 µM
- TGI (MALME-3M melanoma): 5.9 µM
- GI50 (HL-60(TB) leukemia): > 100 µM
- TGI (HL-60(TB) leukemia): > 100 µM
- GI50 (U251 CNS): 2.1 µM
- TGI (U251 CNS): 5.2 µM
- GI50 (CCRF-CEM leukemia): > 100 µM
- TGI (CCRF-CEM leukemia): > 100 µM
- GI50 (NCI-H226 lung): 2.14 µM
- TGI (NCI-H226 lung): 7.16 µM
- GI50 (SNB-75 CNS): 2.23 µM
- TGI (SNB-75 CNS): 11 µM

SMILES: C/C(=C\CCc1ccsc1)CC/C=C(\C)CCCN1CCC(CO)CC1
- GI50 (MCF7 breast): 2.17 µM
- TGI (MCF7 breast): 5.09 µM
- GI50 (SR leukemia): 1.81 µM
- TGI (SR leukemia): 4.4 µM
- GI50 (RXF 393 renal): 1.31 µM
- TGI (RXF 393 renal): 3.19 µM
- GI50 (IGROV1 ovarian): 3.26 µM
- TGI (IGROV1 ovarian): 10.8 µM
- GI50 (OVCAR-3 ovarian): 2.11 µM
- TGI (OVCAR-3 ovarian): 4.29 µM
- GI50 (HCT-116 colon): 1.67 µM
- TGI (HCT-116 colon): 3.32 µM
- GI50 (SF-295 CNS): 2 µM
- TGI (SF-295 CNS): 4.13 µM
- GI50 (OVCAR-8 ovarian): 3.02 µM
- TGI (OVCAR-8 ovarian): 12.8 µM
- GI50 (OVCAR-4 ovarian): 2.3 µM
- TGI (OVCAR-4 ovarian): 9.5 µM
- GI50 (SF-539 CNS): 1.69 µM
- TGI (SF-539 CNS): 3.36 µM
- GI50 (M14 melanoma): 1.92 µM
- TGI (M14 melanoma): 3.73 µM
- GI50 (NCI-H522 lung): 1.9 µM
- TGI (NCI-H522 lung): 3.74 µM
- GI50 (SNB-19 CNS): 2.63 µM
- TGI (SNB-19 CNS): 9.28 µM
- GI50 (BT-549 breast): 1.7 µM
- TGI (BT-549 breast): 3.51 µM
- GI50 (T-47D breast): 2.22 µM
- TGI (T-47D breast): 6.03 µM
- GI50 (SW-620 colon): 2.02 µM
- TGI (SW-620 colon): 4.77 µM
- GI50 (SF-268 CNS): 5.06 µM
- TGI (SF-268 CNS): 19.4 µM
- GI50 (SK-MEL-28 melanoma): 1.69 µM
- TGI (SK-MEL-28 melanoma): 3.38 µM
- GI50 (HOP-62 NSCLC): 1.89 µM
- TGI (HOP-62 NSCLC): 3.63 µM
- GI50 (SK-OV-3 ovarian): 5.15 µM
- TGI (SK-OV-3 ovarian): 18.4 µM
- GI50 (NCI-H460 lung): 1.92 µM
- TGI (NCI-H460 lung): 3.85 µM
- GI50 (A549 NSCLC): 2.35 µM
- TGI (A549 NSCLC): 7.56 µM
- GI50 (COLO 205 colon): 1.92 µM
- TGI (COLO 205 colon): 3.95 µM
- GI50 (HOP-92 NSCLC): 1.02 µM
- TGI (HOP-92 NSCLC): 3.69 µM
- GI50 (LOX IMVI melanoma): 1.77 µM
- TGI (LOX IMVI melanoma): 3.27 µM
- GI50 (CAKI-1 renal): 2.61 µM
- TGI (CAKI-1 renal): 9.22 µM
- GI50 (MDA-MB-231 breast): 1.38 µM
- TGI (MDA-MB-231 breast): 2.87 µM
- GI50 (KM12 colon): 1.88 µM
- TGI (KM12 colon): 3.47 µM
- GI50 (DU-145 prostate): 4.69 µM
- TGI (DU-145 prostate): 16.1 µM
- GI50 (A498 renal): 1.24 µM
- TGI (A498 renal): 3.5 µM
- GI50 (NCI/ADR-RES ovarian): 3.33 µM
- TGI (NCI/ADR-RES ovarian): 13.3 µM
- GI50 (UO-31 renal): 2.83 µM
- TGI (UO-31 renal): 16 µM
- GI50 (RPMI-8226 leukemia): 1.93 µM
- TGI (RPMI-8226 leukemia): 4.15 µM
- GI50 (TK-10 renal): 1.76 µM
- TGI (TK-10 renal): 3.29 µM
- GI50 (MOLT-4 leukemia): 2.3 µM
- TGI (MOLT-4 leukemia): 5.8 µM
- GI50 (HS 578T breast): 2 µM
- TGI (HS 578T breast): 6.19 µM
- GI50 (OVCAR-5 ovarian): 2.77 µM
- TGI (OVCAR-5 ovarian): 11.6 µM
- GI50 (K-562 leukemia): 1.28 µM
- TGI (K-562 leukemia): 3.41 µM
- GI50 (786-0 renal): 1.77 µM
- TGI (786-0 renal): 3.36 µM
- GI50 (NCI-H23 lung): 3.4 µM
- TGI (NCI-H23 lung): 12.9 µM
- GI50 (HCC-2998 colon): 1.97 µM
- TGI (HCC-2998 colon): 3.77 µM
- GI50 (SN12C renal): 3.24 µM
- TGI (SN12C renal): 14.2 µM
- GI50 (UACC-62 melanoma): 1.81 µM
- TGI (UACC-62 melanoma): 3.64 µM
- GI50 (MDA-MB-435): 1.87 µM
- TGI (MDA-MB-435): 3.87 µM
- GI50 (ACHN renal): 3.02 µM
- TGI (ACHN renal): 11.5 µM
- GI50 (MALME-3M melanoma): 1.71 µM
- TGI (MALME-3M melanoma): 3.37 µM
- GI50 (HL-60(TB) leukemia): 1.94 µM
- TGI (HL-60(TB) leukemia): 3.99 µM
- GI50 (U251 CNS): 1.42 µM
- TGI (U251 CNS): 3.11 µM
- GI50 (CCRF-CEM leukemia): 2.09 µM
- TGI (CCRF-CEM leukemia): 4.8 µM
- GI50 (NCI-H226 lung): 3.94 µM
- TGI (NCI-H226 lung): 21 µM
- GI50 (SK-MEL-5 melanoma): 1.55 µM
- TGI (SK-MEL-5 melanoma): 2.95 µM
- GI50 (HT29 colon): 1.94 µM
- TGI (HT29 colon): 5.64 µM
- GI50 (SNB-75 CNS): 1.69 µM
- TGI (SNB-75 CNS): 4.56 µM
- GI50 (UACC-257 melanoma): 1.84 µM
- TGI (UACC-257 melanoma): 4.06 µM
- GI50 (HCT-15 colon): 1.86 µM
- TGI (HCT-15 colon): 4.01 µM
